Converted amounts (≈) assume the structure as drawn. Like-named read-outs stand apart in the source and are kept apart here.
Legend:
Haemophilus influenzae = assay: MIC, NCCLS broth microdilution, respiratory pathogens; type: cell-based; settings: H. influenzae
Experimental: (§1) Minimum inhibitory concentrations (“MICs”) were determined by the NCCLS broth microdilution procedure for susceptibility testing for bacteria that grow aerobically (National Committee for Clinical Laboratory Standards, 1997. Methods for dilution antimicrobial susceptibility tests for bacteria that grow aerobically, 4th ed. Approved standard. NCCLS Document M7-A4. National Committee for Clinical Laboratory Standards, Villanova, Pa.). Stock solutions were prepared on the day of the test and appropriate aliquots were added to cation adjusted Mueller-Hinton broth (CAMHB, DIFCO) or Haemophilus test media. Two-fold serial dilutions were prepared and added to wells in microtiter plates. Final test concentrations ranged from 8 to 0.004 ug/ml. Broth cultures of bacteria inoculated from growth on overnight plates for all test bacteria except Streptococcus pneumoniae and Haemophilus influenzae were incubated at 35° C. and then adjusted to the Kirby Bauer standard and diluted in CAMHB to achieve a final inoculum concentration of approximately 5×10^5 CFU/ml. Inocula for S. pneumoniae and H. influenzae were prepared by directly suspending colonies from an overnight plate, adjusting the turbidity and diluting as above. S. pneumoniae media was supplemented with 3% lysed horse blood. All plates were incubated in ambient air at 35° C. for 20-24 h for S. pneumoniae and Haemophilus influenzae and 16-20 h for all other bacteria.

Streptococcus pneumoniae = assay: as above; type: cell-based; settings: S. pneumoniae
Experimental: as §1

M. catarrhalis = assay: as above; type: cell-based; settings: Moraxella catarrhalis
Experimental: as §1

S. pyogenes = assay: as above; type: cell-based; settings: Streptococcus pyogenes
Experimental: as §1

in vivo = settings: male, beagle, dog, iv; for AUC: AUCtot
Experimental: The dosing route was an intravenous infusion jugular vein access). The infusion was accomplished using a CADD Prizm® ambulatory infusion pump attached to a jacket worn by the dog. The dose duration for the intravenous infusion was 30 min for all doses administered, except the last dose (30 mg/kg) where the infusion period was extended to 45 min to accommodate the larger dose volume required for this dose. The vehicle dose and diluent for the test article was 0.05-M sodium citrate in sterile water for injection.
There was one treatment group of four non-naïve dogs and the study was comprised of both pharmacokinetic and telemetry phases, as summarized in the dose administration table for compound (III) (Table 16) below. At least one week was given between dosings to allow clearance of the drug.
For the pharmacokinetic (PK) phase, the blood collection intervals were: predose, 10, 20, 30, (end dose time), 35, 45, 60, 90, 150, 270, 390, 510, 1440, and 2880 min relative to the start of the infusion. Whole blood (˜2 mL) was collected into Vacutainerss' (BD, Franklin, N.J.) containing sodium heparin as the anticoagulant agent. Blood samples were centrifuged at a speed of 3000 rpm, a temperature of 4° C. and a run time of 10 min. Plasma samples were transferred to amber glass vials and analyzed by LC/MS/MS to determine drug concentrations.

[1] = Pharmacokinetics in the mouse, plasma and lung tissue; type: in vivo; settings: oral gavage 10 mg/kg
Experimental: The pharmacokinetics of compounds of formula (VIII) and compounds of formula (II) and (III) were measured in the mouse. Compounds were administered either intravenously (i.v.) at 1 mg/kg, or per oral gavage (p.o.) at 10 mg/kg. Plasma samples were taken and analyzed by LC/MS-MS. For lung tissue pharmacokinetics, lungs were removed and homogenized, followed by analyzis by LC/MS-MS.

P. granulosum = assay: MIC, NCCLS Reference Agar Dilution Method for anaerobic bacteria; type: cell-based, Propionibacterium granulosum
Experimental: Minimum inhibitory concentrations (“MICs”) were determined by the NCCLS Reference Agar Dilution Method (M11-A5, Vol. 21, No. 2) for anaerobic bacteria. A panel of 84 antibiotic-susceptible and resistant strains of Propionibacteria from distinct geographic locations were selected. Following revival from frozen stocks, each strain was purity plated onto Wilkins Chalgren Agar, pH 7.2 (Oxoid, UK), and the appropriate antibiotic resistance/susceptibility phenotype was confirmed by antibiotic disc testing. Each strain was subjected to an agar dilution MIC assay. […] The inocula for each batch of strains were prepared from 7-day old Wilkins Chalgren Agar plate cultures by resuspension of colonies in Wilkins Chalgren Anaerobe broth, pH 7.2 (Oxoid, UK) to an optical density (OD600) of 0.2±0.02. The inoculum (1.0-2.0 μL) for each strain was applied to a Wilkins Chalgren Agar MIC plate in a grid pattern using a Multipoint Inoculator (Denley, UK). All agar plates were incubated at 37° C. for 3 days under anaerobic conditions in AnaeroPack 7 liter rectangular jars (Mitsubishi Gas Chemical Company, Inc., Japan).

anesthetized rats = assay: Cardiovascular safety, QT interval in anesthetized rats, i.v. bolus; type: in vivo, rat; settings: rat
Experimental: Total doses of drug (0.47, 0.94, 1.88, 3.75, 7.5, and 15 mg/kg) or equivalent volumes of vehicle were administered incrementally as an i.v. bolus to groups of 6 anesthetized rats or guinea pigs at 0, 15, 30, 45, 60, and 75 minutes. Hemodynamic parameters including mean arterial pressure (MAP) and heart rate (HR), and ECG parameters (QT and PR intervals and QRS duration) were recorded. For the rat, injection of vehicle gave a 16% increase in QT interval over baseline. For the guinea pig, injection of vehicle gave a 3% increase in QT interval over baseline.

[2] = genotype sensitive, read-out: MIC50
[3] = genotype sensitive, read-out: MIC90

CC1CC(N(C)C)C(O)C(O[C@@H]2[C@@H](C)C(=O)[C@](C)(F)C(=O)O[C@H](CCF)[C@@]3(C)OC(=O)N[C@@H]3[C@@H](C)C(=O)[C@H](C)C[C@@]2(C)OC/C=C/c2ccc3cccnc3c2)O1 (stereo partly shown) [Compound (III), 6-O-(1-(7-quinolyl)-3-propenyl)-11-amino-11-deoxy-3-(descladinosyl)-3-oxo-2,15-difluoroerythromycin A-11,12-cyclic carbamate]
MIC50 (Haemophilus influenzae; resistant): > 8 µg/mL
MIC90 (Haemophilus influenzae; resistant): > 8 µg/mL
MIC50 (Haemophilus influenzae; sensitive): 2 µg/mL (≈ 2.49 µM)
MIC90 (Haemophilus influenzae; sensitive): 4 µg/mL (≈ 4.99 µM)
MIC50 (Streptococcus pneumoniae; 20 h, genotype ermB + mef): 0.5 µg/mL
MIC50 (Streptococcus pneumoniae; genotype ermB): 0.12 µg/mL (≈ 0.15 µM)
MIC90 (Streptococcus pneumoniae; genotype ermB): 0.12 µg/mL (≈ 0.15 µM)
MIC90 (Streptococcus pneumoniae; genotype ermB + mef): 1 µg/mL
MIC50 (Streptococcus pneumoniae; genotype mef, read-out: MIC50): 0.25 µg/mL (≈ 0.312 µM)
MIC90 (Streptococcus pneumoniae; genotype mef, read-out: MIC90): 0.25 µg/mL (≈ 0.312 µM)
MIC50 (Streptococcus pneumoniae; [2]): 0.03 µg/mL (≈ 0.0374 µM)
MIC90 (Streptococcus pneumoniae; [3]): 0.03 µg/mL (≈ 0.0374 µM)
MIC50 (M. catarrhalis): 0.12 µg/mL (≈ 0.15 µM)
MIC90 (M. catarrhalis): 0.12 µg/mL (≈ 0.15 µM)
MIC50 (S. pyogenes; genotype ermB): 0.12 µg/mL (≈ 0.15 µM)
MIC90 (S. pyogenes; genotype ermB): 1 µg/mL (≈ 1.25 µM)
MIC50 (S. pyogenes; genotype mef, read-out: MIC50): 0.12 µg/mL (≈ 0.15 µM)
MIC90 (S. pyogenes; genotype mef, read-out: MIC90): 0.12 µg/mL (≈ 0.15 µM)
MIC50 (S. pyogenes; [2]): 0.06 µg/mL (≈ 0.0748 µM)
MIC90 (S. pyogenes; [3]): 0.06 µg/mL (≈ 0.0748 µM)
Tmax (in vivo; 11 mg/kg): 0.46 ± 0.08 h
half-life (in vivo; 11 mg/kg): 5.36 ± 0.4 h
AUC (in vivo; 11 mg/kg): 33900 ± 3190 ng·h/mL
Cmax (in vivo; 11 mg/kg, Mean Cmax): 6000 ± 1130 ng/mL
AUCtot (in vivo; 15 mg/kg): 36047 ± 22104 ng·h/mL
mean Cmax (in vivo; 15 mg/kg): 6206 ± 3144 ng/mL
AUC (in vivo; 15 mg/kg): 43900 ± 23100 ng·h/mL
Cmax (in vivo; 15 mg/kg, mean Cmax): 7520 ± 3310 ng/mL
Lung AUC ([1]; mouse lung tissue): 45.9 ug/mL-h
Lung Cmax ([1]; mouse lung tissue): 8700 ng/mL
AUC ([1]; mouse plasma): 16200 ng·h/mL
Cmax ([1]; mouse plasma): 3000 ng/mL
MIC range (P. granulosum; marker RNA 2058, phenotype EryR): 8 µg/mL (≈ 9.98 µM)
MIC range (P. granulosum; marker RNA 2059, phenotype EryR): 0.125 to 2 µg/mL
MIC range (P. granulosum; marker ermX, phenotype EryR): 4 to 32 µg/mL
MIC range (P. granulosum; marker none, phenotype none): 0.06 µg/mL (≈ 0.0748 µM)
effect on the QT interval in the rat (anesthetized rats): did not prolong the QT interval

Reference: patent publication US7595300B2, “7-quinolyl ketolide antibacterial agents” (priority 2005, dated 2009)
